Data as given in ChEMBL document CHEMBL5154842, “Unique Carbazole-Oxadiazole Derivatives as New Potential Antibiotics for Combating Gram-Positive and -Negative Bacteria” (J Med Chem, 2022).
Converted amounts (≈) assume the structure as drawn. The source made the active and inactive calls. The calls are words filed in the database; no cut-off is given here.

Assays:
Staphylococcus aureus [1] = assay: Antibacterial activity against methicillin-resistant Staphylococcus aureus N315 assessed as inhibition of bacterial growth incubated for 24 hrs by CLSI protocol based two fold serial dilution method; type: functional
Enterococcus faecalis = assay: Antibacterial activity against Enterococcus faecalis assessed as inhibition of bacterial growth incubated for 24 hrs by CLSI protocol based two fold serial dilution method; type: functional
Staphylococcus aureus [2] = assay: Antibacterial activity against Staphylococcus aureus assessed as inhibition of bacterial growth incubated for 24 hrs by CLSI protocol based two fold serial dilution method; type: functional
Staphylococcus aureus [3] = assay: Antibacterial activity against Staphylococcus aureus 25923 assessed as inhibition of bacterial growth incubated for 24 hrs by CLSI protocol based two fold serial dilution method; type: functional
Staphylococcus aureus [4] = assay: Antibacterial activity against Staphylococcus aureus 29213 assessed as inhibition of bacterial growth incubated for 24 hrs by CLSI protocol based two fold serial dilution method; type: functional
Klebsiella pneumoniae = assay: Antibacterial activity against Klebsiella pneumonia assessed as inhibition of bacterial growth incubated for 24 hrs by CLSI protocol based two fold serial dilution method; type: functional
Escherichia coli [5] = assay: Antibacterial activity against Escherichia coli assessed as inhibition of bacterial growth incubated for 24 hrs by CLSI protocol based two fold serial dilution method; type: functional
Escherichia coli [6] = assay: Antibacterial activity against Escherichia coli 25922 assessed as inhibition of bacterial growth incubated for 24 hrs by CLSI protocol based two fold serial dilution method; type: functional
Pseudomonas aeruginosa [7] = assay: Antibacterial activity against Pseudomonas aeruginosa assessed as inhibition of bacterial growth incubated for 24 hrs by CLSI protocol based two fold serial dilution method; type: functional
Pseudomonas aeruginosa [8] = assay: Antibacterial activity against Pseudomonas aeruginosa ATCC 27853 assessed as inhibition of bacterial growth incubated for 24 hrs by CLSI protocol based two fold serial dilution method; type: functional
Acinetobacter baumannii = assay: Antibacterial activity against Acinetobacter baumannii assessed as inhibition of bacterial growth incubated for 24 hrs by CLSI protocol based two fold serial dilution method; type: functional
Staphylococcus aureus [9] = assay: Antibacterial activity against methicillin-resistant Staphylococcus aureus N315 assessed as change in susceptibility at sub-MIC treated over 9 serial passages measured after 9 days by resistance development assay; type: functional, organism-based; conditions: time 9.0 day
Staphylococcus aureus [10] = assay: Antibacterial activity against methicillin-resistant Staphylococcus aureus N315 assessed as inhibition of bacterial growth at 0.5 to 16 ug/ml measured after 24 hrs by microplate reader assay; type: functional, organism-based; conditions: dose 0.5-16 µg/ml
Staphylococcus aureus [11] = assay: Antibacterial activity against methicillin-resistant Staphylococcus aureus N315 assessed as increase in germicidal effect at 4 ug/ml measured after 7 hrs by microplate reader assay; type: functional, organism-based; conditions: dose 4.0 µg/ml
Erythrocyte = assay: Hemolytic activity in human RBC assessed as hemolysis rate at 1 to 32 ug/ml measured after 60 mins by microplate reader assay; type: toxicity, cell-based; conditions: 1 h, dose 1-32 µg/ml
Staphylococcus aureus [12] = assay: Antibacterial activity against methicillin-resistant Staphylococcus aureus N315 assessed as inhibition of bacterial growth at 0.25 to 64 ug/ml incubated for 24 hrs by Alamar blue assay; type: functional, organism-based; conditions: dose 0.25-64 µg/ml
Staphylococcus aureus [13] = assay: Antibacterial activity against methicillin-resistant Staphylococcus aureus N315 assessed as increase in bactericidal effect at 2 to 8 ug/ml measured after 24 hrs by microplate reader assay; type: functional, organism-based; conditions: dose 2-8 µg/ml
HEK-293T = assay: Cytotoxicity against human HEK293T cells assessed as cell viability at 0.5 to 64 ug/ml incubated for 24 hrs by MTT assay; type: toxicity, cell-based; conditions: dose 0.5-64 µg/ml
HeLa = assay: Cytotoxicity against human HeLa cells assessed as cell viability at 0.5 to 64 ug/ml incubated for 24 hrs by MTT assay; type: toxicity, cell-based; conditions: dose 0.5-64 µg/ml
[14] = Hemolytic activity in human RBC assessed as hemolysis at 1 to 32 ug/ml measured after 60 mins by microplate reader assay relative to control; type: toxicity, cell-based, Erythrocyte; conditions: red blood cells (erythrocytes), at 1 to 32 µg/mL, dose 1-32 µg/ml, read-out: Activity
[15] = Toxicity against Balb/c mouse assessed as body weight at 100 mg/kg, iv administered every 2 days measured after 1 week; type: organism-based; conditions: in vivo, 168 h, time 1 weeks
Cell membrane [16] = assay: Induction of inner membrane permeabilization in methicillin-resistant Staphylococcus aureus N315 assessed as increase in PI uptake by measuring increase in fluorescence intensity at 1 to 8 ug/ml incubated for 30 mins by calcein-AM/PI staining based fluorescence microscopic analysis; conditions: dose 1-8 µg/ml, DDE = dose-dependent effect
Cell membrane [17] = assay: Induction of cell membrane disruption in methicillin-resistant Staphylococcus aureus N315 assessed as increase in protein leakage at 0.5 to 6 ug/ml incubated under agitation condition by Bradford assay; conditions: dose 0.5-6 µg/ml
Cell membrane [18] = assay: Induction of cell membrane disruption in methicillin-resistant Staphylococcus aureus N315 assessed as increase in nucleotides leakage at 0.5 to 6 ug/ml incubated under agitation condition by UV absorption based analysis; type: subcellular; conditions: dose 0.5-6 µg/ml
Staphylococcus aureus [19] = assay: Antibacterial activity against methicillin-resistant Staphylococcus aureus ATCC 43300 assessed as inhibition of bacterial growth incubated for 24 hrs by CLSI protocol based two fold serial dilution method; type: functional
Staphylococcus aureus [20] = assay: Antibacterial activity against Staphylococcus aureus CMCC (B) 26003 assessed as inhibition of bacterial growth incubated for 24 hrs by CLSI protocol based two fold serial dilution method; type: functional
Staphylococcus aureus [21] = assay: Antibacterial activity against Staphylococcus aureus CMCC (B) 26001 assessed as inhibition of bacterial growth incubated for 24 hrs by CLSI protocol based two fold serial dilution method; type: functional
Staphylococcus aureus [22] = assay: Antibacterial activity against Staphylococcus aureus ATCC 12600 assessed as inhibition of bacterial growth incubated for 24 hrs by CLSI protocol based two fold serial dilution method; type: functional
Staphylococcus aureus [23] = assay: Antibacterial activity against Staphylococcus aureus ATCC 6583 assessed as inhibition of bacterial growth incubated for 24 hrs by CLSI protocol based two fold serial dilution method; type: functional

Q: Which MIC (Staphylococcus aureus [1]) does the source give for `Sc1nnc(Cn2c3ccccc3c3c(OCC4CCCCC4)cccc32)o1` here?
A: 0.25 µg/mL (≈ 0.635 µM)

Q: What about the MIC (Enterococcus faecalis) of the same compound?
A: 4 µg/mL (≈ 10.2 µM)

Q: What about the MIC (Staphylococcus aureus [2]) of the same compound?
A: 256 µg/mL (≈ 651 µM)

Q: What about the MIC (Staphylococcus aureus [3]) of the same compound?
A: 4 µg/mL (≈ 10.2 µM)

Q: And the MIC (Staphylococcus aureus [4])?
A: 4 µg/mL (≈ 10.2 µM)

Q: What about the MIC (Klebsiella pneumoniae) of the same compound?
A: 4 µg/mL (≈ 10.2 µM)

Q: What about the MIC (Escherichia coli [5]) of the same compound?
A: 1 µg/mL (≈ 2.54 µM)

Q: What about the MIC (Escherichia coli [6]) of the same compound?
A: 0.25 µg/mL (≈ 0.635 µM)

Q: And the MIC (Pseudomonas aeruginosa [7])?
A: 128 µg/mL (≈ 325 µM)

Q: And the MIC (Pseudomonas aeruginosa [8])?
A: 4 µg/mL (≈ 10.2 µM)

Q: What about the MIC (Acinetobacter baumannii) of the same compound?
A: 0.5 µg/mL (≈ 1.27 µM)

Q: And the Activity (Staphylococcus aureus [9])?
A: Active

Q: And the Activity (Staphylococcus aureus [10])?
A: Active

Q: And the Activity (Staphylococcus aureus [11])?
A: Active

Q: What about the Activity (Erythrocyte) of the same compound?
A: Toxic

Q: What about the Activity (Staphylococcus aureus [12]) of the same compound?
A: Active

Q: What does the source list for `C=CCOc1cccc2c1c1ccccc1n2Cc1nnc(S)o1`?
A: MIC (Staphylococcus aureus [1]): 2 µg/mL (≈ 5.93 µM); MIC (Enterococcus faecalis): 1 µg/mL (≈ 2.96 µM); MIC (Staphylococcus aureus [2]): 256 µg/mL (≈ 759 µM); MIC (Staphylococcus aureus [3]): 8 µg/mL (≈ 23.7 µM); MIC (Staphylococcus aureus [4]): 0.25 µg/mL (≈ 0.741 µM); MIC (Klebsiella pneumoniae): 4 µg/mL (≈ 11.9 µM); MIC (Escherichia coli [5]): 4 µg/mL (≈ 11.9 µM); MIC (Escherichia coli [6]): 0.25 µg/mL (≈ 0.741 µM); MIC (Pseudomonas aeruginosa [7]): 128 µg/mL (≈ 379 µM); MIC (Pseudomonas aeruginosa [8]): 4 µg/mL (≈ 11.9 µM); MIC (Acinetobacter baumannii): 0.25 µg/mL (≈ 0.741 µM); Activity (Staphylococcus aureus [10]): Active; Activity (Staphylococcus aureus [13]): Active; Activity (HEK-293T): Non-Toxic; Activity (HeLa): Non-Toxic; hemolysis at 1 h [14]: < 3%; Activity [15]: Non-Toxic; Activity (Cell membrane [16]): Dde; Activity (Cell membrane [17]): Active; Activity (Cell membrane [18]): Active; MIC (Staphylococcus aureus [19]): 0.25 µg/mL (≈ 0.741 µM); MIC (Staphylococcus aureus [20]): 0.25 µg/mL (≈ 0.741 µM); MIC (Staphylococcus aureus [21]): 0.25 µg/mL (≈ 0.741 µM); MIC (Staphylococcus aureus [22]): 0.25 µg/mL (≈ 0.741 µM); MIC (Staphylococcus aureus [23]): 0.25 µg/mL (≈ 0.741 µM); Activity (Staphylococcus aureus [12]): Active
